Measurements from patent US5340929A, “Trisazo dye and dye composition containing the same” (Orient Chemical Industries, Ltd., priority 1992, dated 1994).
Read-outs that look alike come from different tables or passages of the source.

Legend:
[1] = Water resistance of writing (drawdown paper dipped in tap water, reflection density); type: physicochemical; conditions: drawndown paper, 3% dye solution, air-dried one day
Protocol: Light resistance: The resulting dye was dissolved in a 5% aqueous diethylene glycol solution to obtain a 3% dye solution. […] A degree of discoloration was compared with that before testing.
Water resistance: The drawndown paper was air-dried for one day and dipped in tap water.
A: Reflection density is more than 70% of that before testing.
B: Reflection density is 50 to 70% of that before testing.
C: Reflection density is less than 50% that before testing.

strains TA98 [2] = type: cell-based
Protocol: Further, the trisazo dye of the present invention is a nontoxic trisazo dye which gives negative results in a back mutation test using an organism, which is generally known as a test method for evaluating toxicity, i.e. AMES test (mutation test).
Evaluation method of Ames test
Regarding various specimen solutions respectively containing a trisazo dyes obtained in Examples 1 to 8 of the present invention and dyes of Comparative Examples 1 to 3, the number of mutant colonies was determined using strains TA98. 2. When the ratio is less than 2, it is "negative" and, when the ratio is more than 2, it is "positive", and the results are shown in Table. 1.

Hue of dye / writing = type: physicochemical
strains TA98 [3] = conditions: cited from earlier work

Row | SMILES | Writing evaluation: Water resistance [1] | Ames test: ratio of the number of colonies to control (strains TA98 [2]; TA98, S-9 (+), 20 μg/plate) | Ames test: ratio of the number of colonies to control (strains TA98 [2]; TA98, S-9 (+), 78 μg/plate) | Ames test: ratio of the number of colonies to control (strains TA98 [2]; TA98, S-9 (+), 313 μg/plate) | Ames test: ratio of the number of colonies to control (strains TA98 [2]; TA98, S-9 (+), 1250 μg/plate) | Ames test: ratio of the number of colonies to control (strains TA98 [2]; TA98, S-9 (+), 5000 μg/plate) | Ames test: ratio of the number of colonies to control (strains TA98 [2]; TA98, S-9 (-), 20 μg/plate) | Ames test: ratio of the number of colonies to control (strains TA98 [2]; TA98, S-9 (-), 78 μg/plate) | Ames test: ratio of the number of colonies to control (strains TA98 [2]; TA98, S-9 (-), 313 μg/plate) | Ames test: ratio of the number of colonies to control (strains TA98 [2]; TA98, S-9 (-), 1250 μg/plate) | Ames test: ratio of the number of colonies to control (strains TA98 [2]; TA98, S-9 (-), 5000 μg/plate) | Hue (Hue of dye / writing) | AMES evaluation (strains TA98 [2]; TA98, positive/negative from ratio of colonies to control) | Hue (Hue of dye / writing; listed as Comparative Example 1) | Ames test result (strains TA98 [3]; prior art statement, background) | Hue (Hue of dye / writing; listed as Comp. Example 2) | Ames test result (strains TA98 [3])
1 | Nc1ccc(N=Nc2ccc(N(c3ccccc3)c3ccc(N=Nc4c(S(=O)(=O)O)cc5cc(S(=O)(=O)O)c(N=Nc6ccccc6)c(O)c5c4N)cc3)cc2)c(O)c1 [Ex. 1] | A (Reflection density is more than 70% of that before testing.) | 1.18 | 1.17 | 1.32 | 0.41 | 0.29 | 0.95 | 0.82 | 0.82 | 0.95 | 0.77 | Reddish |  |  |  |  | 
2 | Cc1ccc(N(c2ccc(N=Nc3ccc(O)cc3O)cc2)c2ccc(N=Nc3c(S(=O)(=O)O)cc4cc(S(=O)(=O)O)c(N=Nc5ccccc5)c(O)c4c3N)cc2)cc1 [Ex. 2] | B (Reflection density is 50 to 70% of that before testing.) | 1.17 | 1.09 | 1.02 | 0.83 | 0.87 | 1.19 | 1.32 | 1.04 | 1.06 | 1.18 | Reddish |  |  |  |  | 
3 | CCC(C)c1ccc(N=Nc2c(S(=O)(=O)O)cc3cc(S(=O)(=O)O)c(N=Nc4ccc(N(c5ccccc5)c5ccc(N=Nc6ccc(O)cc6O)cc5)cc4)c(N)c3c2O)cc1 (centres unmarked) [Ex. 3] | A (Reflection density is more than 70% of that before testing.) | 1.30 | 1.07 | 1.17 | 1.67 | 0.77 | 0.87 | 0.83 | 0.78 | 0.87 | 0.70 | Reddish |  |  |  |  | 
4 | Nc1ccc(N=Nc2ccc(N(c3ccccc3)c3ccc(N=Nc4c(S(=O)(=O)O)cc5cc(S(=O)(=O)O)c(N=Nc6ccc(S(=O)(=O)O)cc6)c(O)c5c4N)cc3)cc2)c(O)c1 [Ex. 4] | A (Reflection density is more than 70% of that before testing.) | 1.23 | 1.22 | 1.21 | 1.51 | 1.17 | 1.06 | 1.02 | 1.05 | 0.99 | 1.02 | Reddish |  |  |  |  | 
5 | CN(c1ccc(N=Nc2ccc(N)cc2O)cc1)c1ccc(N=Nc2c(S(=O)(=O)O)cc3cc(S(=O)(=O)O)c(N=Nc4ccccc4)c(O)c3c2N)cc1 [Ex. 5] | B (Reflection density is 50 to 70% of that before testing.) | 1.60 | 1.56 | 1.44 | 1.72 | 1.20 | 1.00 | 0.78 | 0.87 | 1.39 | 1.65 | Reddish |  |  |  |  | 
6 | CCCCN(c1ccc(N=Nc2ccc(N)cc2O)cc1)c1ccc(N=Nc2c(S(=O)(=O)O)cc3cc(S(=O)(=O)O)c(N=Nc4ccc(C(C)CC)cc4)c(O)c3c2N)cc1 (centres unmarked) [Ex. 6] | A (Reflection density is more than 70% of that before testing.) | 1.09 | 1.04 | 1.28 | 1.48 | 1.33 | 0.82 | 1.13 | 1.11 | 1.32 | 1.60 | Reddish |  |  |  |  | 
7 | CCCCCCN(c1ccc(N=Nc2ccc(N)cc2O)cc1)c1ccc(N=Nc2c(S(=O)(=O)O)cc3cc(S(=O)(=O)O)c(N=Nc4ccccc4C)c(O)c3c2N)cc1 [Ex. 7] | A (Reflection density is more than 70% of that before testing.) | 1.20 | 1.15 | 0.82 | 0.44 | 0.53 | 1.28 | 1.50 | 1.06 | 1.33 | 0.94 | Reddish |  |  |  |  | 
8 | CCCCCCCCN(c1ccc(N=Nc2ccc(N)cc2O)cc1)c1ccc(N=Nc2c(S(=O)(=O)O)cc3cc(S(=O)(=O)O)c(N=Nc4ccc(S(=O)(=O)O)cc4)c(O)c3c2N)cc1 [Ex. 8] | B (Reflection density is 50 to 70% of that before testing.) | 1.25 | 1.22 | 1.16 | 0.88 | 0.91 | 0.98 | 0.94 | 0.91 | 0.93 | 1.02 | Reddish |  |  |  |  | 
9 | Nc1ccc(N=Nc2ccc(Nc3ccc(N=Nc4c(S(=O)(=O)O)cc5cc(S(=O)(=O)O)c(N=Nc6ccccc6)c(O)c5c4N)cc3S(=O)(=O)O)cc2)c(O)c1 [compound 1, C.I. Direct Black 168, reference compound] | C (Reflection density is less than 50% that before testing.) | 0.83 | 0.88 | 1.08 | 1.38 | 3.38 | 0.82 | 1.13 | 0.88 | 0.88 | 0.88 | Reddish | False positive | Reddish black | false positive or positive |  | 
10 | Nc1ccc(N=Nc2ccc(N=Nc3c(S(=O)(=O)[O-])cc4cc(S(=O)(=O)[O-])c(N=Nc5ccc(N=Nc6ccc(N)cc6N)cc5)c(O)c4c3N)cc2)c(N)c1.[Na+].[Na+] [compound 2, C.I. Direct Black 19, reference compound] | A (Reflection density is more than 70% of that before testing.) | 8.33 | 24.2 | 75.0 | 52.8 | 4.00 | 0.92 | 0.88 | 1.48 | 2.24 | 2.84 | Yellowish |  |  |  | yellowish black | false positive or positive
